This passage reports IC50 results from patent US20260226073A1 (AURIGENE ONCOLOGY LIMITED, priority 2023, published 2026).

A value given as a limit tells only on which side of the number the result lay.

T1 sequence (Q13191 39-426): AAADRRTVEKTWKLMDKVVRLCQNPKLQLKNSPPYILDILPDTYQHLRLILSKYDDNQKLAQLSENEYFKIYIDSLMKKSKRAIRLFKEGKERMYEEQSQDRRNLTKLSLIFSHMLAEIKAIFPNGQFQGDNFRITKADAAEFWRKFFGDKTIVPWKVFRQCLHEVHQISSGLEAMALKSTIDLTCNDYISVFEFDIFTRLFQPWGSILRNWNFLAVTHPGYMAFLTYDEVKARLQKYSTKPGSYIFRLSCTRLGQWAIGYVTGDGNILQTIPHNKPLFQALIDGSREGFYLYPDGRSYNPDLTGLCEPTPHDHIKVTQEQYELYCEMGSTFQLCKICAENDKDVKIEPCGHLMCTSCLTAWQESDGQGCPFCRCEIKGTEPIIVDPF

This experiment addresses T1, human recombinant CBL-b (human Biotin CBL-b recombinant protein a.a. 39-426) (Homo sapiens, UniProt Q13191).
T1 construct: human Biotin CBL-b recombinant protein a.a; 39-426; Biotin (biotinylated); made in house
Put plainly: Biochemical assay for CBL-b inhibition (ligand displacement TR-FRET). Particulars: 50 nM CBL-b, 0.3 μM Bodipy FL-Probe, read-out: IC50 (CBL-b inhibition, group). The class given is binding. As for the experimental part: The inhibitory activity of the test compounds was assessed by Ligand displacement TR-FRET assay. The human recombinant CBL-b (human Biotin CBL-b recombinant protein a.a. 39-426; synthesised in-house) was diluted in enzyme assay buffer (20 mM HEPES, 150 mM NaCl, 0.01% Triton X, 0.01% BSA, 0.5 mM TCEP) in a 10 μl volume and plated in 384-well plates (Cat #781075, Greiner) to a final concentration of 50 nM. The enzyme/compound mixture was incubated at RT for 60 min. The Bodipy FL-Probe described in WO 2020/210508 (synthesized in-house) diluted in enzyme assay buffer was added to the plate and incubated for 60 min RT, the final probe concentration was 0.3 μM. After 60 min incubation, 10 μl of detection mix (Terbium Streptavidin, (Cat #PV3576, Invitrogen) diluted in 1× Lance buffer) was added and incubated for 60 min at room temperature. Time-resolved fluorescence (excitation, 320 nm; emission donor, 615 nm; emission acceptor, 665 nm) was monitored by using 2030 multilabel reader Victor5 (PerkinElmer). The IC50 (concentration for half maximal inhibition) and % maximum inhibition of the compounds were estimated by fitting the dose response data to a sigmoidal curve fitting equation using Graph pad Prism software V. 8.
On to `C[C@@H]1CN(Cc2cc(N3Cc4ccc(C5(Cc6nncn6C)COC5)cc4C3=O)nc(C(F)(F)F)c2)C[C@H](C)O1` [Compound 72, 2-(4-(((2R,6S)-2,6-Dimethylmorpholino)methyl)-6-(trifluoromethyl)pyridin-2-yl)-6-(3-((4-methyl-4H-1,2,4-triazol-3-yl)methyl)oxetan-3-yl)isoindolin-1-one], for which the IC50 fell in the range of 300 to 5000 nM. For `CCNCCc1cc(N2Cc3ccc(C4(Cc5nncn5C)COC4)cc3C2=O)cc(C(F)(F)F)c1` [Compound 75, 2-(3-(2-(Ethylamino)ethyl)-5-(trifluoromethyl)phenyl)-6-(3-((4-methyl-4H-1,2,4-triazol-3-yl)methyl)oxetan-3-yl)isoindolin-1-one], the IC50 was in the range of 300 to 5000 nM. Under `Cc1cc(N2Cc3ccc(C4(Cc5nncn5C)COC4)cc3C2=O)cc2c1cnn2CCN(C)C` [Compound 76, 2-(1-(2-(Dimethylamino)ethyl)-4-methyl-1H-indazol-6-yl)-6-(3-((4-methyl-4H-1,2,4-triazol-3-yl)methyl)oxetan-3-yl)isoindolin-1-one] stands 300 to 5000 nM; under `CCN1CCc2c(cc(N3Cc4ccc(C5(Cc6nncn6C)COC5)cc4C3=O)cc2C(F)(F)F)C1` [Compound 77, 2-(2-Ethyl-5-(trifluoromethyl)-1,2,3,4-tetrahydroisoquinolin-7-yl)-6-(3-((4-methyl-4H-1,2,4-triazol-3-yl)methyl)oxetan-3-yl)isoindolin-1-one], 300 to 5000 nM; under `CCN(CC)Cc1cc(Cl)nc(N2Cc3ccc(C4(Cc5nncn5C)COC4)cc3C2=O)c1` [Compound 79, 2-(6-Chloro-4-((diethylamino)methyl)pyridin-2-yl)-6-(3-((4-methyl-4H-1,2,4-triazol-3-yl)methyl)oxetan-3-yl)isoindolin-1-one], 300 to 5000 nM. Under `CN1CC2CC1CN2Cc1cc(N2Cc3ccc(C4(Cc5nncn5C)COC4)cc3C2=O)nc(C(F)(F)F)c1` (stereo not drawn) [Compound 81, 2-(4-((5-Methyl-2,5-diazabicyclo[2.2.1]heptan-2-yl)methyl)-6-(trifluoromethyl)-pyridin-2-yl)-6-(3-((4-methyl-4H-1,2,4-triazol-3-yl)methyl)oxetan-3-yl)isoindolin-1-one] stands 300 to 5000 nM; under `C[C@@H]1CN(Cc2cc(N3Cc4ccc(C5(Cc6nncn6C)COC5)cc4C3=O)nc(C(F)(F)F)c2)CCN1` [Compound 96, (R)-6-(3-((4-Methyl-4H-1,2,4-triazol-3-yl)methyl)oxetan-3-yl)-2-(4-((3-methylpiperazin-1-yl)methyl)-6-(trifluoromethyl)pyridin-2-yl)isoindolin-1-one], 300 to 5000 nM. Under `C[C@@H]1CN(Cc2cc(N3Cc4ccc(C5(Cc6nncn6C)COC5)cc4C3=O)nc(C(F)(F)F)c2)CCN1C` [Compound 97, (R)-2-(4-((3,4-Dimethylpiperazin-1-yl)methyl)-6-(trifluoromethyl)pyridin-2-yl)-6-(3-((4-methyl-4H-1,2,4-triazol-3-yl)methyl)oxetan-3-yl)isoindolin-1-one] stands 300 to 5000 nM. Consider `C[C@@H]1CN(Cc2cc(N3Cc4ccc(C5(Cc6nncn6C)COC5)cc4C3=O)nc(C(F)(F)F)c2)C[C@H](C)N1` [Compound 98, 2-(4-(((3R,5S)-3,5-Dimethylpiperazin-1-yl)methyl)-6-(trifluoro-methyl)pyridin-2-yl)-6-(3-((4-methyl-4H-1,2,4-triazol-3-yl)methyl)oxetan-3-yl)-isoindolin-1-one], for which the IC50 lay within 300 to 5000 nM. In the case of `Cn1cnnc1CC1(c2ccc3c(c2)C(=O)N(c2cc(CNCCOCCOCCOCCN)cc(Cl)n2)C3)COC1` [Compound 99, 2-(4-(13-Amino-5,8,11-trioxa-2-azatridecyl)-6-chloropyridin-2-yl)-6-(3-((4-methyl-4H-1,2,4-triazol-3-yl)methyl)oxetan-3-yl)isoindolin-1-one] it was 300 to 5000 nM; in that of `CC(C)NCC(O)c1cc(N2Cc3ccc(C4(Cc5nncn5C)COC4)cc3C2=O)cc(C(F)(F)F)c1` (stereo not drawn) [Compound 100, 2-(3-(1-Hydroxy-2-(isopropylamino)ethyl)-5-(trifluoromethyl)-phenyl)-6-(3-((4-methyl-4H-1,2,4-triazol-3-yl)methyl)oxetan-3-yl)isoindolin-1-one], 300 to 5000 nM. Under `C[C@H]1CCCN(Cc2cc(Cl)nc(N3Cc4ccc(-c5c(-c6nncn6C)cnn5C)cc4C3=O)c2)C1` [Compound 114, (S)-2-(6-Chloro-4-((3-methylpiperidin-1-yl)methyl)pyridin-2-yl)-6-(1-methyl-4-(4-methyl-4H-1,2,4-triazol-3-yl)-1H-pyrazol-5-yl)isoindolin-1-one] stands 300 to 5000 nM; under `C[C@H]1CCCN(Cc2cc(Cl)nc(N3Cc4ccc(-c5ccccc5-c5nncn5C)cc4C3=O)c2)C1` [Compound 118, (S)-2-(6-Chloro-4-((3-methylpiperidin-1-yl)methyl)pyridin-2-yl)-6-(2-(4-methyl-4H-1,2,4-triazol-3-yl)phenyl)isoindolin-1-one], less than 80 nM; under `Cn1cc2c(n1)CCCN2Cc1cc(N2Cc3ccc(C4(Cc5nncn5C)COC4)cc3C2=O)nc(C(F)(F)F)c1` [Compound 128, 2-(4-((2-Methyl-2,5,6,7-tetrahydro-4H-pyrazolo[4,3-b]pyridin-4-yl)methyl)-6-(trifluoromethyl)pyridin-2-yl)-6-(3-((4-methyl-4H-1,2,4-triazol-3-yl)methyl)oxetan-3-yl)isoindolin-1-one], 300 to 5000 nM. Regarding `Cc1nc(CNCc2cc(Cl)nc(N3Cc4ccc(C5(Cc6nncn6C)COC5)cc4C3=O)c2)cs1` [Compound 129, 2-(6-Chloro-4-((((2-methylthiazol-4-yl)methyl)amino)methyl)-pyridin-2-yl)-6-(3-((4-methyl-4H-1,2,4-triazol-3-yl)methyl)oxetan-3-yl)isoindolin-1-one], the IC50 is 80 to 300 nM.

For the molecule `Cn1cnnc1CC1(c2ccc3c(c2)C(=O)N(c2cc(CNCC4(F)CC4)cc(Cl)n2)C3)COC1` [Compound 130, 2-(6-Chloro-4-((((1-fluorocyclopropyl)methyl)amino)methyl)-pyridin-2-yl)-6-(3-((4-methyl-4H-1,2,4-triazol-3-yl)methyl)oxetan-3-yl)isoindolin-1-one], the half-inhibitory concentration (IC50) lay in the range of 80 to 300 nM. Under `Cc1cc(CO)cc(N2Cc3ccc(-c4ccc(F)cc4-c4nncn4C)cc3C2=O)n1` [Compound 136, 6-(4-Fluoro-2-(4-methyl-4H-1,2,4-triazol-3-yl)phenyl)-2-(4-(hydroxymethyl)-6-methylpyridin-2-yl)isoindolin-1-one] stands 300 to 5000 nM; under `COC1(CNCc2cc(C)nc(N3Cc4ccc(-c5ccc(F)cc5-c5nncn5C)cc4C3=O)c2)CC1` [Compound 137, 6-(4-Fluoro-2-(4-methyl-4H-1,2,4-triazol-3-yl)phenyl)-2-(4-((((1-methoxycyclopropyl)methyl)amino)methyl)-6-methylpyridin-2-yl)isoindolin-1-one], 80 to 300 nM. On to `C[C@H]1CCCN(Cc2cc(N3Cc4ccc(C5(Cc6nncn6C)COC5)cc4C3=O)nc(C(F)(F)F)c2)[C@H]1C` [Compound 138], for which the IC50 lay within 300 to 5000 nM. In the case of `C[C@H]1CCCN(Cc2ccnc(N3Cc4ccc(C5(Cc6nncn6C)COC5)cc4C3=O)c2)C1` [Compound 149] it was 80 to 300 nM; in that of `CC(Cc1nncn1C)c1cnc2c(c1)C(=O)N(c1cc(CN3CCC[C@H](C)C3)cc(Cl)n1)C2` (stereo partly drawn) [Compound 150], 80 to 300 nM. In the case of `Cn1cnnc1CC1(c2ccc3c(c2)C(=O)N(c2cc(CNCC4CCCCC4)cc(Cl)n2)C3)COC1` [Compound 153] it was 80 to 300 nM; in that of `C[C@H]1CCCN(Cc2cc(Cl)nc(N3Cc4ccc(CCc5nncn5C)cc4C3=O)c2)C1` [Compound 154], 80 to 300 nM; in that of `CC(C)C(Cc1nncn1C)c1ccc2c(c1)C(=O)N(c1cc(CN3CCC[C@H](C)C3)cc(Cl)n1)C2` (stereo partly drawn) [Compound 165], 300 to 5000 nM. Turning to `C[C@H]1CCCN(Cc2cc(Cl)nc(N3Cc4ccc(C(Cc5nncn5C)C5CCC5)cc4C3=O)c2)C1` (stereo partly drawn) [Compound 173], the IC50 was 300 to 5000 nM. Under `Cn1cnnc1CC1(c2ccc3c(c2)C(=O)N(c2cc(CN4CCCC(O)CC4)cc(Cl)n2)C3)COC1` (stereo not drawn) [Compound 174] stands 80 to 300 nM; under `C[C@@H]1CN(Cc2cc(Cl)nc(N3Cc4ccc(C5(Cc6nncn6C)COC5)cc4C3=O)c2)C[C@@H](C)O1` [Compound 177], 300 to 5000 nM. Under `Cn1cnnc1CC1(c2ccc3c(c2)C(=O)N(c2cc(CNCC4COC4)cc(Cl)n2)C3)COC1` [Compound 183] stands 80 to 300 nM; under `Cn1cnnc1CC1(c2ccc3c(c2)C(=O)N(c2cc(CN4CCC(C)(F)C4)cc(Cl)n2)C3)COC1` (stereo not drawn) [Compound 184], 80 to 300 nM; under `Cc1nc(CNCC2CC2)cc(N2Cc3ccc(C4(Cc5nncn5C)COC4)cc3C2=O)n1` [Compound 186], 80 to 300 nM.

For `C[C@@H]1CN(Cc2cc(Cl)nc(N3Cc4ccc(C5(Cc6nncn6C)COC5)cc4C3=O)c2)C[C@H](C)O1` [Compound 191], the IC50 fell in the range of 300 to 5000 nM. Take `Cn1cnnc1CC1(c2ccc3c(c2)C(=O)N(c2cc(CN4CCC5OCCC54)cc(Cl)n2)C3)COC1` (stereo not drawn) [Compound 192]: the IC50 was in the range of 300 to 5000 nM. Under `Cn1cnnc1CC1(c2ccc3c(c2)C(=O)N(c2cc(CNCc4nccs4)cc(Cl)n2)C3)COC1` [Compound 194] stands 80 to 300 nM.
